{"source": "patent US20050124645A1", "about": "“Methods and compositions for increasing CD4lymphocyte immune responsiveness” (priority 1998, published 2005)", "molecules": {"B1": {"name": "IL-4: cytokine which binds to receptors on T cells having γc; R&D Systems (protein, UniProt P05112 25-153, looked up)", "Interleukin-4": "HKCDITLQEIIKTLNSLTEQKTLCTELTVTDIFAASKNTTEKETFCRAATVLRQFYSHHEKDTRCLGATAQQFHRHKQLIRFLKRLDRNLWGLAGLNSCPVKEANQSTLENFLERLKTIMREKYSKCSS"}, "B2": {"name": "STAT5: over-expressed from an expression vector encoding STAT5 (protein, UniProt P42229 1-794, looked up)", "Signal transducer and …": "MAGWIQAQQLQGDALRQMQVLYGQHFPIEVRHYLAQWIESQPWDAIDLDNPQDRAQATQLLEGLVQELQKKAEHQVGEDGFLLKIKLGHYATQLQKTYDRCPLELVRCIRHILYNEQRLVREANNCSSPAGILVDAMSQKHLQINQTFEELRLVTQDTENELKKLQQTQEYFIIQYQESLRIQAQFAQLAQLSPQERLSRETALQQKQVSLEAWLQREAQTLQQYRVELAEKHQKTLQLLRKQQTIILDDELIQWKRRQQLAGNGGPPEGSLDVLQSWCEKLAEIIWQNRQQIRRAEHLCQQLPIPGPVEEMLAEVNATITDIISALVTSTFIIEKQPPQVLKTQTKFAATVRLLVGGKLNVHMNPPQVKATIISEQQAKSLLKNENTRNECSGEILNNCCVMEYHQATGTLSAHFRNMSLKRIKRADRRGAESVTEEKFTVLFESQFSVGSNELVFQVKTLSLPVVVIVHGSQDHNATATVLWDNAFAEPGRVPFAVPDKVLWPQLCEALNMKFKAEVQSNRGLTKENLVFLAQKLFNNSSSHLEDYSGLSVSWSQFNRENLPGWNYTFWQWFDGVMEVLKKHHKPHWNDGAILGFVNKQQAHDLLINKPDGTFLLRFSDSEIGGITIAWKFDSPERNLWNLKPFTTRDFSIRSLADRLGDLSYLIYVFPDRPKDEVFSKYYTPVLAKAVDGYVKPQIKQVVPEFVNASADAGGSSATYMDQAPSPAVCPQAPYNMYPQNPDHVLDQDGEFDLDETMDVARHVEELLRRPMDSLDSRLSPPAGLFTSARGSLS"}, "B3": {"name": "IL-12: cytokine that binds to receptors on T cells which lack γc (protein, UniProt P29459 23-219; P29460 23-328, looked up)", "Interleukin-12 subunit alpha": "RNLPVATPDPGMFPCLHHSQNLLRAVSNMLQKARQTLEFYPCTSEEIDHEDITKDKTSTVEACLPLELTKNESCLNSRETSFITNGSCLASRKTSFMMALCLSSIYEDLKMYQVEFKTMNAKLLMDPKRQIFLDQNMLAVIDELMQALNFNSETVPQKSSLEEPDFYKTKIKLCILLHAFRIRAVTIDRVMSYLNAS", "Interleukin-12 subunit beta": "IWELKKDVYVVELDWYPDAPGEMVVLTCDTPEEDGITWTLDQSSEVLGSGKTLTIQVKEFGDAGQYTCHKGGEVLSHSLLLLHKKEDGIWSTDILKDQKEPKNKTFLRCEAKNYSGRFTCWWLTTISTDLTFSVKSSRGSSDPQGVTCGAATLSAERVRGDNKEYEYSVECQEDSACPAAEESLPIEVMVDAVHKLKYENYTSSFFIRDIIKPDPPKNLQLKPLKNSRQVEVSWEYPDTWSTPHSYFSLTFCVQVQGKSKREKKDRVFTDKTSATVICRKNASISVRAQDRYYSSSWSEWASVPCS"}}, "key": {"[1]": {"target": "T1, protein tyrosine phosphatase (PTP), particularly PTP1B (Homo sapiens, UniProt P18031)", "T1 sequence (P18031 1-435)": "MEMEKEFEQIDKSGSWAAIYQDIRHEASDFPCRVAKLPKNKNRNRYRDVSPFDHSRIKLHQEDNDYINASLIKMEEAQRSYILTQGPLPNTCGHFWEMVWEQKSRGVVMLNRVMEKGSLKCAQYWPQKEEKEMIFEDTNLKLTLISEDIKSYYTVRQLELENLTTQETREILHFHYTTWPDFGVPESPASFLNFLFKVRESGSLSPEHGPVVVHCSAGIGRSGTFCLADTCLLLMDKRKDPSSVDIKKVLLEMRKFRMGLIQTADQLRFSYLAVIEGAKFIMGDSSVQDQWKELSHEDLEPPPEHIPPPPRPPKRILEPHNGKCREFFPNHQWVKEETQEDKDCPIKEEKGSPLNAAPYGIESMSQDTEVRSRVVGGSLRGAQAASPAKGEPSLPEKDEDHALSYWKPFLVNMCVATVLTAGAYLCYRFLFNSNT", "settings": "Pathak & Yi 2001; cited from earlier work"}, "[2]": {"tested_on": "purified human CD4+ T cells", "experiment": "Anti-TCR induced proliferation ([3H]-thymidine) of CD4-ligated purified CD4+ T cells, rescue by cytokines", "format": "cell-based", "settings": "for reversal of inhibition of proliferation at higher cytokine concentrations: up to 80 U/ml, data not shown; for anti-TCR induced proliferative response of CD4-ligated T cells: 20 U/ml cytokine, gp120 or anti-CD4 ligation before plate-bound anti-TCR, 3 days, FIG. 1", "procedure": "Heparinized venous blood from healthy adult human donors was separated on a Ficoll-Paque (Pharmacia Biotech) gradient to obtain lymphocytes. CD4^+ T cells were isolated by incubation with anti-CD8 mAb (OKT8, 20 Ag/ml, ATCC), followed by negative selection on goat anti-mouse IgG coated Immulan beads (Biotecx Laboratories).\nSpecifically, the purified CD4^+ T cells in balanced salts solution were incubated with or without gp120 (rgp120SF2, 10 μg/ml) and crosslinked with anti-gp120 antibody (1:250 dilution) or anti-CD4 mAb (anti-CD4, Leu-3α, 20 μg/ml) for 1 hr at 37° C.\nProliferation in response to plate-bound anti-TCR was determined as follows. Cells were washed, resuspended in RPMI-1640 culture media (GIBCO) supplemented with 10% fetal bovine serum (FBS, Gemini BioProducts) and 1×10^5 cells were added to triplicate wells of an anti-T cell receptor monoclonal antibody-coated (anti-TCR, BMA-031, 50 μg/ml) 96-well plate (Becton Dickinson). […] Culture plates were incubated for 3 days at 37° C. with 1 μCi/Well [^3H]-thymidine (NEN) present during the final 5 hours of culture. The cells were harvested and processed to determine ^3H-thymidine incorporation."}, "IL-2R (α-chain, CD25)": {"tested_on": "IL-2R (α-chain, CD25)", "experiment": "Activation-induced IL-2R (CD25) expression on CD4 primed T cells by flow cytometry", "format": "cell-based, human", "settings": "20 U/ml cytokine; 24 hours; FIGS. 2A, 2B", "procedure": "Expression of high affinity IL-2R (CD25) was also analyzed in CD4 primed T cells. To determine the expression of IL-2R (α-chain, CD25), the culture plates were set up as described in Example 1 and incubated at 37° C. for 24 hours. 2×10^5 cells were stained with FITC-conjugated anti-CD25 mAb (Pharmingen) and analyzed by flow cytometry (Coulter XL)."}, "JAK3 [3]": {"tested_on": "JAK3", "experiment": "JAK3 expression and tyrosine phosphorylation (immunoprecipitation/Western blot) in TCR/CD3-stimulated CD4+ T cells with or without prior CD4 ligation", "format": "cell-based, human", "settings": "for reversal of gp120 or anti-CD4 induced inhibition of JAK3 expression and activation: 20 U/ml cytokine, FIG. 4", "procedure": "In this experiment, the present inventors determined the activation status of JAK3 in CD4^+ T cells which were activated through the TCR subsequent to CD4 ligation.\nBriefly, the purified CD4^+ T cells were incubated with or without gp120 and anti-gp120 antibody or anti-CD4 for 1 hour at 37° C. 3×10^6 cells per well were incubated at 37° C. in an anti-CD3 mAb coated (anti-CD3, OKT3, 50 μg/ml, ATCC) 12-well plate. Cells were harvested after various times and lysed in Tris-buffered saline (TBS) containing 1% NP-40, phosphatase inhibitors and protease inhibitors. After micro centrifugation, the post-nuclear lysates were used for immunoprecipitation with anti-JAK3 polyclonal antibody (anti-JAK3, 10 μl, Santa Cruz Biotechnology). The antibody-protein complex was pelleted using Sepharose-conjugated Protein A (Sigma) boiled in sample buffer (0.4% SDS, 3% glycerol and 1% β-mercaptoethanol (2-ME)) and the proteins were separated by 7.5% SDS-PAGE. The proteins were transferred to nitrocellulose membrane and immunoblotted with antiphosphotyrosine mAb (anti-P-Tyr, Ab-2, Oncogene Science) Positive protein bands were detected with horseradish peroxidase (HRP)-conjugated goat anti-mouse IgG (Jackson ImmunoResearch) and SuperSignal Substrate (SSS, Pierce). Membranes were stripped with 62.5 mM Tris-HCl, pH 6.7, containing 10 mM 2-ME, and 2% SDS, immunoblotted with anti-JAK3, and developed with HRP-conjugated protein A and SSS.\nIn some experiments, 1.5×10^6 cell equivalents of post-nuclear lysate were boiled with sample buffer and separated by 7.5% SDS-PAGE. Nitrocellulose membrane was immunoblotted with (anti-JAK3 and then stripped and immunoblotted with anti-actin mAb (anti-actin, Sigma), as described above. Optical density (O.D.) of positive bands was measured with the Stratagene Eagle Eye II."}, "JAK3 [4]": {"tested_on": "JAK3", "experiment": "JAK3 expression (Western blot) in mock- or HIV-1 NL4-3-infected CD4+ T cell PHA blasts", "format": "cell-based, human", "settings": "20 U/ml, 48 hours", "procedure": "In this experiment, purified human CD4^+ T cells isolated as described above and activated with PHA for 3 days were infected for 4 days with a laboratory cloned strain of HIV-1, NL4-3. […] Cells were harvested and lysed with TBS/1% NP40 and analyzed on 7.5% SDS PAGE. Western blots using anti-JAK3 or anti-actin were prepared as described in Example 3."}, "JAK1": {"tested_on": "JAK1", "experiment": "JAK1 activation in T cells stimulated through TCR/CD3 with or without prior CD4 ligation", "format": "cell-based, human", "settings": "CD4 ligation before TCR/CD3 stimulation; FIG. 5", "text": "Another Janus family kinase, JAK1, associates with the β chain of IL-2R and with the α chains of IL-4R and IL-7R, and is autophosphorylated upon activation (Johnston et al. (1994) Nature, 370:151; and Russell et al. (1994) Science, 270:797)."}, "CD4": {"target": "CD4 (Homo sapiens, UniProt P01730)", "settings": "ligation of CD4; literature; cited from earlier work"}, "HIV-1 LTR": {"tested_on": "HIV-1 LTR", "experiment": "HIV-1 LTR-luciferase activity in resting CD4+ T cells", "format": "cell-based", "settings": "STAT5 expression vector or IL-2 for 1 hour, FIG. 17", "text": "Resting CD4^+ T cells were transfected with a construct containing luciferase under the control of HIV-1 LTR or a control luciferase construct (Dual-luciferase© Reporter Assay System, Promega, Madison, Wis.). The cells were also optionally transfected with an expression vector encoding STAT5. […] The luciferase activity of the cellular lysates was subsequently measured."}}, "note": "Entries after “also recorded” stand apart in the source; their conditions may differ."}
{"molecule": "O.O.O.O.O.O.O.O.O.O=C([O-])[C@@H]1[O][Sb]2([O-])([O][Sb]34([OH])[O][C@H]([C@H](O)CO)[C@H]([O]3)[C@H](C(=O)[O-])[O]4)[O][C@H]([C@H](O)CO)[C@@H]1[O]2.[Na+].[Na+].[Na+]", "note": "[pentostam, stibogluconate sodium]", "values": [{"measurement": "cellular protein tyrosine phosphatase (PTP) inhibition, particularly PTP1B", "setting": "[1]", "value": "inhibit"}]}
{"molecule": "IL-6: cytokine that binds to receptors on T cells which lack γc", "values": [{"measurement": "reversal of inhibition of proliferation at higher cytokine concentrations", "setting": "[2]", "value": "did not reverse the inhibition of proliferation"}]}
{"molecule": "IL-7: cytokine which binds to receptors on T cells having γc; Genzyme", "values": [{"measurement": "anti-TCR induced proliferative response of CD4-ligated T cells", "setting": "[2]", "value": "restored the proliferative response"}, {"measurement": "activation-induced CD25 expression on CD4 primed T cells", "setting": "IL-2R (α-chain, CD25)", "value": "restored activation-induced CD25 expression"}, {"measurement": "reversal of gp120 or anti-CD4 induced inhibition of JAK3 expression and activation", "setting": "JAK3 [3]", "value": "completely reversed"}, {"measurement": "JAK3 expression in anti-CD3 stimulated HIV infected T cells", "setting": "JAK3 [4]; versus stimulated HIV-infected cells without cytokine", "value": "significantly increased; also recorded: increases JAK3 expression"}, {"measurement": "JAK3 expression in anti-CD3 stimulated mock-infected T cells", "setting": "JAK3 [4]; versus stimulated cells without cytokine", "value": "increased JAK3 expression slightly"}]}
{"molecule": "gp120: HIV surface glycoprotein, crosslinked with anti-gp120 antibody", "values": [{"measurement": "extent of inhibition of JAK3 expression and activation", "setting": "JAK3 [3]; CD4 ligation before anti-CD3 stimulation, FIG. 3A", "value": "incomplete"}, {"measurement": "TCR/CD3-induced expression and phosphorylation of JAK3", "setting": "JAK3 [3]; CD4 ligation before anti-CD3 stimulation, FIGS. 3A, 3B", "value": "inhibits"}, {"measurement": "activation status of JAK1", "setting": "JAK1", "value": "did not significantly change"}, {"measurement": "TCR/CD3-induced IL-2R expression, IL-2 production, and proliferation", "setting": "CD4", "value": "inhibit"}]}
{"molecule": "B1", "values": [{"measurement": "anti-TCR induced proliferative response of CD4-ligated T cells", "setting": "[2]", "value": "restored the proliferative response"}, {"measurement": "activation-induced CD25 expression on CD4 primed T cells", "setting": "IL-2R (α-chain, CD25)", "value": "restored activation-induced CD25 expression"}, {"measurement": "reversal of gp120 or anti-CD4 induced inhibition of JAK3 expression and activation", "setting": "JAK3 [3]", "value": "completely reversed"}]}
{"molecule": "B2", "values": [{"measurement": "activity from the HIV-1 LTR (luciferase activity)", "setting": "HIV-1 LTR", "value": "increased activity"}]}
{"molecule": "B3", "values": [{"measurement": "reversal of inhibition of proliferation at higher cytokine concentrations", "setting": "[2]", "value": "did not reverse the inhibition of proliferation"}]}
